The test system of series [1] is bulk polyclonal human IgG. Briefly: Cross-interaction chromatography (CIC). The series is classed as physicochemical. The text has this: Cross-interaction chromatography (CIC) is a high throughput method for preliminary assessment of the stickiness of mAb candidates (Jacobs et al., Pharm Res., 27 (1): 65-71 (2010)). In this method, bulk polyclonal human IgG is chemically coupled to an NHS-activated chromatography resin.

The test system of series [2] is BDCA2 on cynomolgus plasmacytoid dendritic cells. Briefly: Flow cytometric whole blood assay, BIIB059 binding to cynomolgus pDCs. The note with it: Alexa647 labeled BIIB059, on ice. The arrangement: species or system cynomolgus monkey. On the procedure: Cynomolgus monkey (Toxikon, Inc, Bedford, MA) or human peripheral blood (Biogen Idec) were collected in sodium heparin collection tubes and maintained at room temperature. A FACS staining antibody cocktail for identifying pDCs was added to each whole blood aliquot, incorporating CD20, CD14, CD123 and HLA-DR antibodies. […] Blood was incubated on ice, protected from light, for 30 min. After 30 min., each 500 μL aliquot of whole blood (cyno) or 100 μL (human) was treated with 10 mL (cyno) or 2 mL (human) of 1× Easy Lyse Buffer (Leinco Technologies) that had been incubated at 37° C. for at least one hour. After a 10-15 min. incubation at room temperature, samples were centrifuged at 1400 rpm for 5 min. The supernatant was decanted, leaving only a pellet of white blood cells (WBC). Each WBC pellet was washed with 5 mL of FACS buffer (1% BSA+0.002% NaAzide+1 mM CaCl2)+1 mM MgCl2 in PBS), and centrifuged at 1400 rpm for 5 min. The supernatant was decanted, and each WBC pellet was resuspended in 200 μL of FACS buffer and transferred to a 96-well round bottom plate (Fisher Scientific). The plate was centrifuged at 1400 rpm for 5 min. The supernatant was dumped out of the plate, and each WBC pellet was washed with 200 μL of FACS buffer. […] Each WBC pellet was resuspended in 250 μL of FACS buffer and fluorescence intensity measured on a LSRII 4-color FACS machine. […]
Chain of BDCA2 on cynomolgus plasmacytoid dendritic cells (as listed by the source): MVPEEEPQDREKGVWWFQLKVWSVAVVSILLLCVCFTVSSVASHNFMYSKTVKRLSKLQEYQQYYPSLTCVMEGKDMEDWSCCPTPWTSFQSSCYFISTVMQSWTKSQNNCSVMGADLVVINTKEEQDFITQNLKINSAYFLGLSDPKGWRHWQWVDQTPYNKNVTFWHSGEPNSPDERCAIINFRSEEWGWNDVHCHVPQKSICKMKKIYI
Background: A flow cytometer gives signals particle by particle.

A further series deals with surface rat Clec4b2. Briefly: Direct FACS binding to surface rat Clec4b2. As to conditions: 293E cells co-transfected with rat Clec4b2/FcεRIγ. The text has this:
To determine whether the lead hu24F4 H4/L1 C95A mAb was capable of binding to surface rat Clec4b2, 293E cells were transiently co-transfected with an EGFP reporter expression vector (pEAG1458) and either human BDCA2/FcεRIγ vectors (pEAG2420 and pEAG2413) or rat Clec4b2/FcεRIγ vectors (pCN834 and pCN844) at 1:1:1 molar ratios. At 3 days post-transfection cells were harvested and stained with the lead hu24F4 H4/L1 C95A mAb in a dilution titration direct FACS binding assay, gating on live EGFP-positive cells.

The subject of series [3] is TLR9-induced IFNα production by PBMC. The series can be described thus: PBMC assay, TLR9-induced IFNα production. The format is cell-based, human. The note with it: 1 or 5 μM CpG-A, 18 hours. The protocol:
PBMCs from heparinized venous blood of healthy donors were isolated by discontinuous gradient centrifugation over Ficoll, washed in PBS and re-suspended in complete culture medium (RPMI with 3% FBS). […] The plates were incubated overnight (18 hours) at 37° C., and the supernatants were collected for evaluation in IFNα ELISA assays (PBL InterferonSource). The assays were performed according to the manufacturer's protocol.
pDCs are the major producers of IFN in response to TLR7 and TLR9 stimulation. pDCs can produce thousand-fold more IFN than any other cell type. […] The plates were incubated overnight (18 hours) at 37° C. and 5% CO2. Supernatants were collected for evaluation in IFNα ELISA assays.

The test system of series [4] is cell surface BDCA2 on pDCs. The series can be described thus: BIIB059 titration in cynomolgus whole blood, anti-human IgG PE detection. The format is binding, cynomolgus monkey. As to conditions: all cynomolgus monkeys. The protocol: The maximal values were taken from the values at the plateau in each assay (FIGS. 24 and 25).
Whole blood was drawn from twelve cynomolgus monkeys, once a week for three weeks total. […] MFI of PE was calculated with FlowJo software, and EC50 curves were generated in GraphPad Prism software.

Chain of surface rat Clec4b2 (as listed by the source): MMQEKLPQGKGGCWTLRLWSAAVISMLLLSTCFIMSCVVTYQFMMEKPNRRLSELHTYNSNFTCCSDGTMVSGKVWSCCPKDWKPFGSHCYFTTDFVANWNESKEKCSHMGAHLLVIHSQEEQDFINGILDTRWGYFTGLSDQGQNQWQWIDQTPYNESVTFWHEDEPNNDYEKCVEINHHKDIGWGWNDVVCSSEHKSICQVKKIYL
Chain of surface rat Clec4b2 (P20411 19-86 partner): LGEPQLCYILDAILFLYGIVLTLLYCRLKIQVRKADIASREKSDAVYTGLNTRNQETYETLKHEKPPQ

Consider “24F4S: hu24F4 H4/L1 with C95S light chain; differs from BIIB059 by 1 amino acid residue”, for which the Solubility entry in series [1] (CIC data table) is “good”. Further, the Rt-Test in series [1] (IgG-derivatized column) is recorded as 9.3. Moreover, the “K′” value in series [1] (higher K′ values may indicate lower solubility) is 0.022. The Rt-Blank in series [1] (non-derivatized column) came out at 9.1.
Turning to “BIIB059: humanized IgG1 anti-BDCA2 antibody, mature heavy chain SEQ ID NO: 4 and mature light chain SEQ ID NO: 3”, the “EC50 of binding to pDCs” value in series [2] was 1-2 μg/mL. The “binding to surface rat Clec4b2” value in the series with surface rat Clec4b2 is listed as “no binding to surface rat Clec4b2 was detected”. Further, the “average IC50, inhibition of TLR9-induced IFNα production” value was 0.03 ± 0.01 µg/mL in series [3] (PBMC from SLE patients) and 0.04 ± 0.05 µg/mL in series [3] (PBMC from healthy donors). Besides, the “concentration that saturates BDCA2 receptor binding” value in series [4] was found to be 10 µg/mL.
